Experimental data published in US11648222B2, “Use of CYP26-resistant RAR alpha selective agonists in the treatment of cancer” (Io Therapeutics, Inc., priority 2015, dated 2023).

Key:
[1] = test system: BM stromal cells cocultured with MM cells; experiment: Stromal Cyp26a1 upregulation by MM cells in coculture; format: cell-based, mouse; settings: SMO inhibitor in coculture
Protocol: (§1) Coculture experiments. 24-well plates were coated with 0.1% gelatin in PBS for 30 min at 37° C. The gelatin solution was removed, and the stromal cells were cultured overnight at a density of 5×10^4 cells/well to obtain a confluent monolayer. At that time, MM cell lines or primary MM cells (1×10^5 in 2 ml) were added to the stroma cultures. The stroma cocultures were incubated at 37° C. in RPMI containing 10% FCS, L-glutamine, and P/S, with or without AGN19194310 (1 μM for 5 days), R115866 (1 μM for 5 days), IRX5183 (1 μM for 5 days), or BTZ (2.5 nM for 48 hr).
(§2) qRT-PCR. Total RNA was extracted using the RNeasy Mini Kit (QIAGEN) according to the manufacturer's instructions. cDNA was synthesized by reverse transcription using the iScript cDNA Synthesis Kit (Bio-Rad). qRT-PCR was performed with iTaq SYBR Green Supermix (Bio-Rad) using sequence specific primers. Gene expression was normalized to GAPDH, and relative quantification was calculated using ΔΔCt. All experiments were performed in duplicate and run on the Bio-Rad CFX96 machine.
To confirm the role of paracrine Hedgehog on this interaction, smoothened (Smo), a membrane receptor that transduces SHH signaling, was knocked out at the genomic level in the mesenchymal compartment. For this, BM mesenchymal cells derived from Smo^fl/fl mice were transduced with a retroviral vector encoding Cre recombinase (Smo-KO stroma). […]

[2] = test system: BM stromal cells; experiment: Effect of soluble factors on CYP26A1 expression in BM stromal cells; format: cell-based; settings: soluble factor added to BM stromal cells
Protocol: as §2

[3] = test system: MM H929 cell lines and MM CD138+ primary cells; experiment: qRT-PCR of B cell and PC markers in MM cells with or without BM stroma coculture; format: cell-based, human; settings: for mRNA expression of B cell and PC markers (BCL6, BLIMP1, XBP1s, CHOP): compound 1 μM for 5 days; for expression of differentiation markers by qRT-PCR or flow cytometry: liquid conditions versus BM stroma
Protocol: Cell cultures. All cell lines were purchased from the American Type Culture Collection. H929, MM1s, and U266 cells were cultured in RPMI 1640 with 10% FCS (Sigma-Aldrich), 2 mM L-glutamine, and 100 μg/ml penicillin-streptomycin (P/S). OP-9 cells were cultured in α-MEM, 20% FCS, L-glutamine, and P/S. Cell lines were authenticated by short-tandem repeat profiling.
Primary MM cells were obtained from patients with newly diagnosed or relapsed MM under an IRB-approved protocol at The Johns Hopkins University. Briefly, mononuclear cells were isolated from fresh BM aspirates by density gradient centrifugation (Ficoll-Paque); CD138+ cells were then selected via magnetic beads and columns and incubated in RPMI 1640, 10% FCS, L-glutamine, and P/S at 37° C.
as §1, §2

[4] = test system: MM cells; experiment: Surface CD138 expression of MM cells by flow cytometry; format: cell-based, human
Protocol: as §1
Flow cytometry. Following treatment, MM cells were collected, washed with PBS, and stained for 15 min at room temperature with phycoerythrin-conjugated (PE-conjugated) anti-CD138. Cells were washed to remove unbound antibody and evaluated in a FACSCalibur system (BD Biosciences). Stromal cells were identified by GFP expression, and viable cells were identified using 7-aminoactinomycin D (7-AAD). To calculate cell numbers, live GFP-cells were normalized to calibration beads.

[5] = test system: MM cell lines and MM CD138+ primary cells; experiment: BTZ sensitivity (clonogenic or cellular recovery) of MM cells after incubation with BM stroma; format: cell-based, human; settings: for effect on stroma-induced BTZ resistance: stroma coculture with compound 1 μM 5 days
Protocol: as §1
Mobilization experiments. MM cells were separated from BM stromal cells by gently pipetting several times around the well. Detached cells were centrifuged, resuspended in fresh media, and incubated in a 24-well plate for 1 hr at 37° C. During this short incubation period, contaminating stromal cells attached to the well, while MM cells remained in suspension. MM cells were then recovered by gently pipetting. This protocol was used for qRT-PCR and CFU coculture experiments. The purity achieved using this protocol was confirmed by flow cytometry to be 98%-99% MM cells and less than 2% contaminating stroma.
Clonogenic assays. After treatment, MM cells were collected, washed with PBS, and plated at a density of 5,000 cells/ml in 1 ml of 1.32% methylcellulose supplemented with 30% FBS, 10% BSA, L-glutamine, P/S, and 0.1 mM p-ME. Cells were plated in triplicate in 35-mm culture dishes, incubated at 37° C., and scored for the presence of colonies 14 days later.

[6] = test system: H929 luciferase+ (Luc+) cells; experiment: Systemic MM xenograft, bioluminescence imaging; format: in vivo, NSG mice; settings: 4 weeks; for tumor burden (bioluminescence): monotherapy, BTZ 0.5 mg/kg i.p. twice weekly or IRX 10 mg/kg once daily
Protocol: For the systemic MM model, 2×10^6 Luc+/GFP+H929 cells were injected via the tail vein into 16-week-old male NSG mice. After engraftment, as determined by an exponential increase in bioluminescence, mice were treated with BTZ (0.5 mg/kg i.p.) twice weekly and with IRX (10 mg/kg) once daily. Tumor burden was assessed by bioluminescence, as above.
To test whether retinoids can enhance BTZ activity in MM, a systemic MM xenograft was developed by injecting 2×10^6 H929 luciferase+(Luc+) cells via the tail vein of nonobese, diabetic, severe combined immunodeficiency IL-2 receptor γ-KO (NSG) mice. The animals were randomized to receive IRX, BTZ, or a combination of both, and disease burden was followed weekly by bioluminescence imaging (FIG. 4).

[7] = test system: H929 Luc+ cells with WT or Smo-KO stroma; experiment: Subcutaneous xenograft model of MM-niche interactions (WT or Smo-KO stroma); format: in vivo, NSG mice
Protocol: Mouse xenografts. 1×10^6 H929 Luc+ cells and 1×10^6 mouse BM stromal cells were resuspended in 100 μl Matrigel, diluted with RPMI (1:1), and injected subcutaneously into 16-week-old male NSG mice. After 4 days, treatment with BTZ (0.5 mg/kg i.p. twice weekly) and IRX (10 mg/kg i.p. daily) was initiated. Tumor burden was assessed by bioluminescence using the In Vivo Imaging System (PerkinElmer). For imaging, mice were exposed to 120 mg/kg D-luciferin via intraperitoneal injection […] before imaging and were anesthetized using isoflurane. Images were analyzed with Living Image Software, version 2.5 (PerkinElmer), and data were quantified as photons/second.
To study to what extent an RA-low environment created by the BM stroma and enhanced by MM cells via paracrine Hedgehog signaling contributes to BTZ resistance, a xenograft model of MM-niche interactions was developed. Each mouse carried 2 subcutaneous tumors consisting of H929 Luc+ cells and either WT (anterior tumors) or Smo-KO stroma (posterior tumors). Mice were treated with IRX (10 mg/kg i.p. daily), BTZ (0.5 mg/kg i.p. twice weekly), or a combination of both. The growth of tumors bearing WT or Smo-KO stroma was not different in untreated or IRX-treated groups (FIGS. 7 and 8). […] While some tumors in the treatment group receiving combined IRX and BTZ appeared to have regressed completely, even after anatomical study, this was not the case for all the mice in this group.

[8] = test system: OCI-AML 3, Kasumi-1 and APL NB4 cells; experiment: Clonogenic growth of AML cell lines in the presence or absence of stroma; format: cell-based; settings: for clonogenic growth (CFU) compared to control: off and on stroma, NB4: 10^-7 M IRX5183, 10^-8 M AM80, OCI-AML3, Kasumi-1: 10^-6 M IRX5183, 10^-7 M AM80; for clonogenic growth: presence or absence of stroma
Protocol: The BM stroma, which expresses inducibly high levels of CYP26, metabolically inactivates ATRA and provides a protected environment for AML cancer stem cells. Synthetic, CYP26-resistant RARα agonists, such as IRX5183 and AM80, should be able to bypass stroma-mediated protection of AML cells and differentiate the cancer stem cells resident in the protected environment of bone marrow niche. To test these hypotheses, clonogenic growth experiments were conducted in the non-APL AML cell lines OCI-AML 3 and Kasumi-1 and APL NB4 cells, which were treated with ATRA, IRX5183, and AM80 in the presence or absence of stroma.

[9] = test system: non-APL AML cells; settings: in vitro; cited from earlier work
[10] = test system: AML; settings: patients; cited from earlier work
[11] = test system: relapse/refractory MM patients; settings: in combination with BTZ; cited from earlier work
[12] = test system: FLT3/ITD acute myeloid leukemia (AML) cells; settings: recent studies; cited from earlier work
[13] = BM stromal cell cocultures incubated with compound

Molecule: CC1=C2C[C@H]3[C@@H](CC=C4C[C@@H](O)CC[C@@]43C)[C@@H]2CC[C@]12O[C@@H]1C[C@H](C)CN[C@H]1[C@H]2C [cyclopamine]
- stromal Cyp26a1 upregulation by MM cells [1]: partially overcame stromal Cyp26a1 upregulation by MM cells

Molecule: TNF-α
- upregulation of CYP26A1 on BM stromal cells [2]: no significant effects

Molecule: CCc1ccc(C2=CC(C)(C)Sc3ccc(C#Cc4ccc(C(=O)O)cc4)cc32)cc1 [AGN194310]
- mRNA expression of B cell and PC markers (BCL6, BLIMP1, XBP1s, CHOP) ([3]; absence of stroma (Liquid)): mimicked the changes induced by BM stromal cells
- surface CD138 expression ([4]; absence of stroma, incubation with compound): markedly decreased
- effect on BTZ sensitivity ([5]; absence of stroma, compound 1 μM 5 days, then BTZ): decreasing BTZ sensitivity

Molecule: CC1(C)CCC(C)(C)c2c1cc(C(=O)Nc1cc(F)c(C(=O)O)c(F)c1)c(O)c2Cl [IRX5183]
- expression of differentiation markers by qRT-PCR or flow cytometry [3]: induced comparable changes, irrespective of the presence or absence of BM stroma
- mRNA expression of B cell and PC markers (BCL6, BLIMP1, XBP1s, CHOP) ([3]; stroma cocultures): restored all markers to levels comparable to those of liquid control conditions
- surface CD138 expression [4, 13]: restored CD138 expression
- effect on stroma-induced BTZ resistance ([5]; then BTZ): overcome
- disease burden (bioluminescence) ([6]; IRX 10 mg/kg daily combined with BTZ 0.5 mg/kg twice weekly): significant (P<0.01) decrease in disease burden
- tumor burden (bioluminescence) [6]: decrease in tumor burden compared with untreated mice
- growth of tumors bearing WT versus Smo-KO stroma ([7]; IRX 10 mg/kg i.p. daily alone): not different
- tumor response (bioluminescence) ([7]; combination of IRX 10 mg/kg daily and BTZ 0.5 mg/kg twice weekly, WT and Smo-KO stroma): significant and equivalent response, regardless of the phenotype of the stromal compartment
- clonogenic growth (CFU) compared to control [8]: decrease in clonogenic growth compared to control
- clonogenic growth [8]: inhibited clonogenic growth to a similar extent in the presence or absence of stroma

Molecule: CC1=C(/C=C/C(C)=C/C=C/C(C)=C/C(=O)O)C(C)(C)CCC1 [ATRA, All-trans retinoic acid]
- clonogenic growth [8]: inhibited clonogenic growth only in the absence of stroma
- differentiation and apoptosis [9]: causes terminal differentiation and apoptosis
- clinical effectiveness [10]: clinically ineffective

Molecule: CCC(CC)C(c1ccc(Nc2nc3ccccc3s2)cc1)n1cncn1 (centres unmarked) [R115866]
- expression of differentiation markers by qRT-PCR or flow cytometry [3]: did not significantly affect the expression of differentiation markers
- mRNA expression of B cell and PC markers (BCL6, BLIMP1, XBP1s, CHOP) ([3]; stroma cocultures): restored all markers to levels comparable to those of liquid control conditions
- surface CD138 expression [4, 13]: restored CD138 expression
- effect on BTZ resistance after separation from BM stroma ([5]; H929 cells, coculture treated with compound 1 μM before separation): prevented the development of a BTZ-resistant phenotype
- effect on stroma-induced BTZ resistance ([5]; then BTZ): overcome

Molecule: CC(C)C[C@H](NC(=O)[C@H](Cc1ccccc1)NC(=O)c1cnccn1)B(O)O [BTZ, bortezomib]
- BTZ resistance after separation from BM stroma ([5]; H929 cells, 5-day stroma coculture, fresh media 0 to 48 hr, then BTZ): remained partially resistant to BTZ for up to 48 hr following detachment from stroma
- sensitivity of MM cells to BTZ ([5]; Smo-KO stroma compared with WT stroma): increased sensitivity to BTZ
- sensitivity of MM cells to BTZ ([5]; absence of BM stroma (liquid), BTZ 2.5 nM 48 hr): highly sensitive to BTZ
- sensitivity of MM cells to BTZ ([5]; after 5 days incubation with BM stroma, BTZ 2.5 nM 48 hr): incubation with BM stroma induced BTZ resistance
- tumor burden (bioluminescence) [6]: decreased tumor growth compared with untreated controls
- tumor response (bioluminescence) ([7]; tumors carrying Smo-KO stroma, BTZ 0.5 mg/kg i.p. twice weekly): significant response
- tumor response (bioluminescence) ([7]; tumors with WT stroma, BTZ 0.5 mg/kg i.p. twice weekly): refractory to BTZ treatment

Molecule: c1cc(CN2CCCNCCNCCCNCC2)ccc1CN1CCCNCCNCCCNCC1 [plerixafor]
- response rates [11]: improved response rates

Molecule: CC1(C)CCC(C)(C)c2cc(NC(=O)c3ccc(C(=O)O)cc3)ccc21 [AM80, 4-[(5,6,7,8-tetrahydro-5,5,8,8-tetramethyl-2-naphthalenyl)carbamoyl]benzoic acid]
- clonogenic growth (CFU) compared to control [8]: decrease in clonogenic growth compared to control
- clonogenic growth [8]: inhibited clonogenic growth in the presence of stroma but not as effectively as IRX5183
- differentiation and sensitivity to FLT3 inhibitors [12]: differentiates FMS-like tyrosine kinase 3/internal tandem duplication (FLT3/ITD) acute myeloid leukemia (AML) cells and increase their sensitivity to FLT3 inhibitors

Molecule: IL-6: cytokine, soluble factor produced by MM cells
- upregulation of CYP26A1 on BM stromal cells [2]: no significant effects
